Laboratory results as given in patent publication US4340539A, “Derivatives of 6-bromo penicillanic acid” (priority 1980, dated 1982).
In brackets after ≈: the same amount, converted by molar mass. Structures can show the parent of a compound that is named as a salt. Where two headings read alike, the source gives them in different places.

What was measured:
[1] = tested on: β-lactamase producing strains of E. coli; assay: Therapeutic efficacy of amoxicillin in combinations with BL-P2024 in infected mice (Table 7); format: in vivo; conditions: oral
S. aureus A-9606 = assay: Therapeutic efficacy in mice experimentally infected with a beta-lactamase strain of Staphylococcus aureus (Table 3); format: in vivo; conditions: for ED50: Staphylococcus aureus, A9606, challenge 5 × 10^8, read-out: PD50/Treatment
Procedure: Treatment schedule: Drugs administered 0 and 2 hours postinfection.

Bacteroides species = assay: Anti-Bacteroides activity (MIC, agar dilution), alone and in combination with BL-P2013; format: cell-based
B. thetaiotaomicron = assay: as above; format: cell-based
Procedure: *Minimum inhibitory concentration (MIC) determined by the agar dilution
method using 50X dilutions of 24 hour cultures as inocula dispensed by th
Steer's inoculator. Assay medium composed of Brucella Agar plus 5% laked
sheep blood and 10 mcg/ml vitamin K.

B. fragilis = assay: as above; format: cell-based
[2] = tested on: β-lactamase producing strains of E. coli; assay: animal or person; format: in vivo, mice; conditions: Escherichia coli, in Mus musculus, po
Procedure: (§1) Drugs were administered orally at 0 and 2 hours postinfection.
(§2) Drugs were suspended in TCMC.

[3] = tested on: β-lactamase producing strains of S. aureus; assay: animal or person; format: in vivo, mice; conditions: Staphylococcus aureus, in Mus musculus, po
Procedure: as §1, §2

[4] = tested on: β-lactamase producing strains of S. aureus; assay: Therapeutic efficacy of amoxicillin in combinations with BL-P2024 in infected mice (Table 7); format: in vivo; conditions: Staphylococcus aureus, po, read-out: PD50/Treatment
P. mirabilis = assay: Antibacterial activity (MIC); format: cell-based; conditions: Proteus mirabilis; strain A-9900
P. rettgeri = assay: Antibacterial activity (MIC); format: cell-based; conditions: Providencia rettgeri; strain A21203
E. coli = assay: Antibacterial activity (MIC); format: cell-based; conditions: Escherichia coli, strain A15119
S. pneumoniae = assay: Antibacterial activity (MIC); format: cell-based; conditions: Streptococcus pneumoniae; strain A-9585
E. cloacae = assay: Antibacterial activity (MIC); format: cell-based; conditions: Enterobacter cloacae, strain A-9659
S. faecalis = assay: Antibacterial activity (MIC); format: cell-based; conditions: Enterococcus faecalis; strain A20688
S. aureus = assay: Antibacterial activity (MIC); format: cell-based; conditions: Staphylococcus aureus
S. pyogenes = assay: Antibacterial activity (MIC); format: cell-based; conditions: Streptococcus pyogenes; strain A-9604
S. marcescens = assay: Antibacterial activity (MIC); format: cell-based; conditions: Serratia marcescens; strain A20019
[5] = Blood levels and half-life of BL-P2024 after oral administration of various doses to mice (Table 5); format: in vivo; conditions: mouse; for concentration at 0.5 h: 30 min; for concentration at 2 h: 120 min; for concentration at 1 h: 60 min
in vivo = assay: in vivo; set-up: species or system mice; conditions: mouse, blood, po, 100 mg/kg, read-out: Blood level
Description: Compounds prepared in 5% Propylene Glycol & TweenCMC-H2 O.
Values in parentheses are 95% confidence limits.
Assay Organism: E. coli A9675 (pH = 6.6, 0.1% inoculum)

[6] = Blood levels after oral administration to mice (Table 4); format: in vivo; conditions: mouse; for concentration at […]: assay organism S. aureus A-9606, read-out: Blood level
β-lactamase = conditions: cited from earlier work
[7] = tested on: β-lactamase-producing strains; conditions: in vitro and in vivo; cited from earlier work
bacteria = conditions: cited from earlier work
Hygroscopicity = format: physicochemical
[8] = E. coli A9675, challenge 6 × 10^5, vehicle TCMC
[9] = E. coli A9675, challenge 7 × 10^5, vehicle 50% DMSO
[10] = E. coli A9675, challenge 7 × 10^5, vehicle TCMC
[11] = E. coli A9675, challenge 9 × 10^5, vehicle 50% DMSO
[12] = oral 25 mg/kg, read-out: Blood level
[13] = oral 50 mg/kg, read-out: Blood level
[14] = oral 100 mg/kg, read-out: Blood level
[15] = oral 200 mg/kg, assay organism S. aureus A9606, read-out: Blood level

CC1(C)S[C@@H]2[C@H](NC(=O)[C@H](N)c3ccc(O)cc3)C(=O)N2[C@H]1C(=O)O [Amoxicillin]
PD50/Treatment [1, 8]: > 400 mg/kg
PD50/Treatment [1, 9]: > 100 mg/kg
PD50/Treatment [1, 10]: > 100 mg/kg
PD50/Treatment [1, 11]: > 100 mg/kg
PD50/Treatment (S. aureus A-9606; IM, challenge 7 × 10^8): > 800 mg/kg
ED50 (S. aureus A-9606; IM): > 800 mg/kg
ED50 (S. aureus A-9606; PO): > 800 mg/kg
MIC (Bacteroides species; Bacteroides): 16 mg/L
MIC (Bacteroides species; Bacteroides, strain A20927-1, β-lactamase -, read-out: MIC): 0.13 mg/L
MIC (Bacteroides species; Bacteroides, strain A20930, β-lactamase +, read-out: MIC): 32 mg/L
MIC (Bacteroides species; Bacteroides, strain A20933, β-lactamase +, read-out: MIC): 8 mg/L
MIC (Bacteroides species; Bacteroides, strain A20934, β-lactamase +, read-out: MIC): 8 mg/L
MIC (Bacteroides species; Bacteroides, strain A20935, β-lactamase -, read-out: MIC): 0.13 mg/L
MIC (Bacteroides species; strain A20929, β-lactamase +): 16 mg/L
MIC (Bacteroides species; strain A20931, β-lactamase +): 16 mg/L
MIC (Bacteroides species; strain A21954, β-lactamase +): 16 mg/L
MIC (B. thetaiotaomicron; Bacteroides thetaiotaomicron, strain A22277, β-lactamase +, read-out: MIC): 16 mg/L
MIC (B. thetaiotaomicron; strain A22279, β-lactamase +): 16 mg/L
MIC (B. fragilis; strain A21875, β-lactamase +, read-out: MIC): 8 mg/L
MIC (B. fragilis; strain A21916, β-lactamase +, read-out: MIC): 8 mg/L
MIC (B. fragilis; strain A22021, β-lactamase +, read-out: MIC): 4 mg/L
MIC (B. fragilis; strain A22053, β-lactamase +, read-out: MIC): 8 mg/L
MIC (B. fragilis; strain A22533, β-lactamase +): > 125 mg/L
MIC (B. fragilis; strain A22534, β-lactamase +): > 125 mg/L
MIC (B. fragilis; strain A22535, β-lactamase +): > 125 mg/L
MIC (B. fragilis; strain A22693, β-lactamase +): 16 mg/L
MIC (B. fragilis; strain A22694, β-lactamase +): 16 mg/L
MIC (B. fragilis; strain A22695, β-lactamase +): 125 mg/L
MIC (B. fragilis; strain A22696, β-lactamase +): > 125 mg/L
MIC (B. fragilis; strain A22697, β-lactamase +, read-out: MIC): 8 mg/L
MIC (B. fragilis; strain A22792, β-lactamase +): 125 mg/L
MIC (B. fragilis; strain A22793, β-lactamase +, read-out: MIC): 8 mg/L
MIC (B. fragilis; strain A22794, β-lactamase +, read-out: MIC): 8 mg/L
MIC (B. fragilis; strain A22795, β-lactamase +): 16 mg/L
MIC (B. fragilis; strain A22797, β-lactamase +): 16 mg/L
MIC (B. fragilis; strain A22798, β-lactamase +, read-out: MIC): 8 mg/L
ED50 ([2]; read-out: PD50/Treatment, oral, E. coli A9675, challenge 6 × 10^5): > 400 mg/kg
ED50 ([2]; read-out: PD50/Treatment, oral, E. coli A9675, challenge 7 × 10^5): > 100 mg/kg
ED50 ([2]; read-out: PD50/Treatment, oral, E. coli A9675, challenge 8 × 10^5): > 200 mg/kg
ED50 ([2]; read-out: PD50/Treatment, oral, E. coli A20649, challenge 5 × 10^5): > 200 mg/kg
ED50 ([2]; read-out: PD50/Treatment, oral, E. coli A20649, challenge 6 × 10^5): > 200 mg/kg
ED50 ([2]; read-out: PD50/Treatment, oral, E. coli A21223, challenge 6 × 10^5): > 200 mg/kg
ED50 ([2]; read-out: PD50/Treatment, oral, E. coli A21223, challenge 7 × 10^5 (first line)): > 200 mg/kg
ED50 ([2]; read-out: PD50/Treatment, oral, E. coli A21223, challenge 7 × 10^5 (third line)): > 200 mg/kg
ED50 ([3]; read-out: PD50/Treatment, oral, S. aureus A9606, challenge 2 × 10^9): > 800 mg/kg
ED50 ([3]; read-out: PD50/Treatment, oral, S. aureus A9606, challenge 7 × 10^8): > 200 mg/kg
ED50 ([3]; read-out: PD50/Treatment, oral, S. aureus A15091, challenge 4 × 10^8): > 200 mg/kg
ED50 ([3]; read-out: PD50/Treatment, oral, S. aureus A15091, challenge 5 × 10^8): > 800 mg/kg
ED50 ([3]; read-out: PD50/Treatment, oral, S. aureus A20379, challenge 5 × 10^8): > 200 mg/kg
ED50 ([3]; read-out: PD50/Treatment, oral, S. aureus A20379, challenge 6 × 10^8): > 200 mg/kg
ED50 [4]: > 800 mg/kg

CC1(C)S[C@@H]2[C@H](NC(=O)[C@H](N)c3ccccc3)C(=O)N2[C@H]1C(=O)O [Ampicillin, reference compound]
MIC (P. mirabilis): 0.13 mg/L (≈ 0.372 µM)
MIC (P. rettgeri): 4 mg/L (≈ 11.4 µM)
MIC (E. coli): 1 mg/L (≈ 2.86 µM)
MIC (S. pneumoniae): 0.004 mg/L (≈ 0.0114 µM)
MIC (E. cloacae): 63 mg/L (≈ 180 µM)
MIC (S. faecalis): 0.13 mg/L (≈ 0.372 µM)
MIC (S. aureus; strain A-9537): 0.16 mg/L (≈ 0.458 µM)
MIC (S. aureus; strain A-9537, + 50% serum): 0.06 mg/L
MIC (S. pyogenes): 0.004 mg/L (≈ 0.0114 µM)
MIC (S. marcescens): 16 mg/L (≈ 45.8 µM)

CC(C)(C)C(=O)OCOC(=O)C1N2C(=O)CC2S(=O)(=O)C1(C)CCl (stereo not drawn) [BL-P2024, Pivaloyloxymethyl 2β-Chloromethyl-2α-methylpenam-3α-carboxylate Sulfone]
half-life ([5]; oral 25 mg/kg): 0.667 h
concentration at […] ([5]; oral 25 mg/kg, 15 min, read-out: Blood level): 5.9 µg/mL
concentration at 0.5 h [5, 12]: 6.2 µg/mL
concentration at […] ([5]; oral 25 mg/kg, 90 min, read-out: Blood level): 1.9 µg/mL
concentration at 2 h [5, 12]: 1.3 µg/mL
concentration at […] ([5]; oral 25 mg/kg, 150 min, read-out: Blood level): 0.7 µg/mL
half-life ([5]; oral 50 mg/kg): 1 h
concentration at […] ([5]; oral 50 mg/kg, 15 min, read-out: Blood level): 7.7 µg/mL
concentration at 0.5 h [5, 13]: 9.5 µg/mL
concentration at 1 h [5, 13]: 6.3 µg/mL
concentration at […] ([5]; oral 50 mg/kg, 90 min, read-out: Blood level): 4.7 µg/mL
concentration at […] ([5]; oral 50 mg/kg, 150 min, read-out: Blood level): 2.3 µg/mL
half-life ([5]; oral 100 mg/kg): 1.42 h
concentration at […] ([5]; oral 100 mg/kg, 15 min, read-out: Blood level): 12.3 µg/mL
concentration at 0.5 h [5, 14]: 12.2 µg/mL
concentration at 1 h [5, 14]: 9.4 µg/mL
concentration at […] ([5]; oral 100 mg/kg, 90 min, read-out: Blood level): 7.2 µg/mL
concentration at 2 h [5, 14]: 5.7 µg/mL
concentration at […] ([5]; oral 100 mg/kg, 150 min, read-out: Blood level): 4.6 µg/mL
concentration at […] ([5]; oral 200 mg/kg, 15 min, assay organism S. aureus A9606, read-out: Blood level): 14.7 µg/mL
concentration at 0.5 h [5, 15]: 14.4 µg/mL
concentration at 1 h [5, 15]: 9.8 µg/mL
concentration at […] ([5]; oral 200 mg/kg, 90 min, assay organism S. aureus A9606, read-out: Blood level): 8.7 µg/mL
concentration at 2 h [5, 15]: 5.1 µg/mL
half-life ([5]; oral 200 mg/kg, assay organism S. aureus A9606): 1 h
PD50/Treatment [1, 8]: > 200 mg/kg
PD50/Treatment [1, 9]: > 25 mg/kg
PD50/Treatment [1, 10]: > 25 mg/kg
PD50/Treatment [1, 11]: > 25 mg/kg
concentration at 1 h (in vivo; Test 2, oral 100 mg/kg, 60 min): 7.8 µg/mL
concentration at […] ([6]; 100 mg/kg, oral 100 mg/kg, 15 min): 13.1 µg/mL
half-life ([6]; 100 mg/kg, oral 100 mg/kg, assay organism E. coli A-9675): 1.17 h
half-life ([6]; 100 mg/kg, oral 100 mg/kg, assay organism S. aureus A-9606): 1 h
concentration at […] ([6]; 200 mg/kg, oral 200 mg/kg, 150 min): > 2.5 µg/mL
half-life ([6]; 200 mg/kg, oral 200 mg/kg, assay organism S. aureus A-9606): 1 h
ED50 ([4]; S. aureus A15091, challenge 5 × 10^8, vehicle TCMC): > 200 mg/kg
ED50 ([4]; S. aureus A20379, challenge 5 × 10^8, vehicle TCMC): 200 mg/kg

CC1(CCl)C(C(=O)OC2OC(=O)c3ccccc32)N2C(=O)CC2S1(=O)=O (stereo not shown) [BL-P2036]
concentration at 0.5 h (in vivo; Test 3, oral 100 mg/kg, 30 min): 6.7 µg/mL

CC1(C)[C@H](C(=O)O)N2C(=O)C[C@H]2S1(=O)=O [CP-45899]
β-lactamase inhibition (β-lactamase): irreversibly acting β-lactamase inhibitor
potentiation of ampicillin [7]: potentiates the in vitro and in vivo activities of ampicillin
antibacterial activity (bacteria): weak antibacterial activity

CC1(CCl)C(C(=O)O)N2C(=O)CC2S1(=O)=O (stereo not shown) [Sodium Salt of BL-P2013]
hygroscopicity (Hygroscopicity): Non-hygroscopic
